Assays:
[1] = target: T1, C-X-C chemokine receptor type 1 (Homo sapiens, UniProt P25024); further: in other assays of this panel Not Active means under 50% inhibition at 10 µM
T1 sequence (P25024 whole entry): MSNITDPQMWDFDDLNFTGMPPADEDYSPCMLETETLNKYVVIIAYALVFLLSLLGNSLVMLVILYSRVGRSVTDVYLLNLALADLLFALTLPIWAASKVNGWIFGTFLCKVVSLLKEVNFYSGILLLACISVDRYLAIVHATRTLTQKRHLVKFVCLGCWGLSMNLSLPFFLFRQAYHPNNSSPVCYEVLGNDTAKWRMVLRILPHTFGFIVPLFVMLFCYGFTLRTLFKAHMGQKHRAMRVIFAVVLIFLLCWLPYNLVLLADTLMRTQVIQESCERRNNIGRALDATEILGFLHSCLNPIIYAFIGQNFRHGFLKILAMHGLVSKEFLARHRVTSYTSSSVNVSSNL

[2] = DRUGMATRIX: GABAA, Flunitrazepam, Central radioligand binding (ligand: [3H] Flunitrazepam); assay type: cell membranes, Rattus norvegicus, Wistar, Brain, Membrane; conditions: Not Active = under 50% inhibition at 10 µM
[3] = target: T2, Muscarinic acetylcholine receptor M5 (Homo sapiens, UniProt P08912); assay type: cell membranes, CHO-K1, Membrane; conditions: cho-k1; further: in other assays of this panel Not Active means under 50% inhibition at 10 µM
T2 sequence (P08912 whole entry): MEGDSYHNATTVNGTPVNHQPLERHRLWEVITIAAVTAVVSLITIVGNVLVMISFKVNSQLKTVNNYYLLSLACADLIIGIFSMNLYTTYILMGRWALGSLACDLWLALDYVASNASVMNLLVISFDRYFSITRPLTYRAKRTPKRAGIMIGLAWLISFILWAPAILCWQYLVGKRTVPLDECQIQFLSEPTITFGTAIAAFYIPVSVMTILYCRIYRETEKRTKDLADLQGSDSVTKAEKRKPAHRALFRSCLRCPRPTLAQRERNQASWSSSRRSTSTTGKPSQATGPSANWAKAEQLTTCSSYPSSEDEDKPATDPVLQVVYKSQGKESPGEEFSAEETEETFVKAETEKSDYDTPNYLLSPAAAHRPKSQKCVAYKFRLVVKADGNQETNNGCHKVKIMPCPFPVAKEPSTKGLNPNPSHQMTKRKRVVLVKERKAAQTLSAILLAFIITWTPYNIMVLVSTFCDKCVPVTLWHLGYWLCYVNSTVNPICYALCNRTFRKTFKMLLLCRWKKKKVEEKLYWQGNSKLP

[4] = target: T3, Neuropeptide Y receptor type 2 (Homo sapiens, UniProt P49146); assay type: cell membranes, KAN-TS, Membrane; conditions: kan-ts; further: in other assays of this panel Not Active means under 50% inhibition at 10 µM
T3 sequence (P49146 whole entry): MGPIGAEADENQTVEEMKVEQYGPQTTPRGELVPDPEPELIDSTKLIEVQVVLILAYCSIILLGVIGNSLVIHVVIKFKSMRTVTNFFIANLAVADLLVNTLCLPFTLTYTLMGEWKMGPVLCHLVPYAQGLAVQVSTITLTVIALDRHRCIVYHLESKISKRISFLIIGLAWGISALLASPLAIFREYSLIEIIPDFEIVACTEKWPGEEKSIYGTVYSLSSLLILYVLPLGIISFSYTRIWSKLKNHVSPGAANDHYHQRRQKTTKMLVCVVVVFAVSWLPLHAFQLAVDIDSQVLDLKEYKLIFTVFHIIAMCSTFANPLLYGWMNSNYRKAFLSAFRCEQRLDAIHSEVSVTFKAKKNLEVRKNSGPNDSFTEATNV

[5] = target: T4, Nitric oxide synthase, inducible (Mus musculus, UniProt P29477); design: species or system Escherichia coli;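 further: inhibition of iNOS enzyme activity measured with L-arginine as substrate; in other assays of this panel Not Active means under 50% inhibition at 10 µM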
T4 sequence (P29477 whole entry): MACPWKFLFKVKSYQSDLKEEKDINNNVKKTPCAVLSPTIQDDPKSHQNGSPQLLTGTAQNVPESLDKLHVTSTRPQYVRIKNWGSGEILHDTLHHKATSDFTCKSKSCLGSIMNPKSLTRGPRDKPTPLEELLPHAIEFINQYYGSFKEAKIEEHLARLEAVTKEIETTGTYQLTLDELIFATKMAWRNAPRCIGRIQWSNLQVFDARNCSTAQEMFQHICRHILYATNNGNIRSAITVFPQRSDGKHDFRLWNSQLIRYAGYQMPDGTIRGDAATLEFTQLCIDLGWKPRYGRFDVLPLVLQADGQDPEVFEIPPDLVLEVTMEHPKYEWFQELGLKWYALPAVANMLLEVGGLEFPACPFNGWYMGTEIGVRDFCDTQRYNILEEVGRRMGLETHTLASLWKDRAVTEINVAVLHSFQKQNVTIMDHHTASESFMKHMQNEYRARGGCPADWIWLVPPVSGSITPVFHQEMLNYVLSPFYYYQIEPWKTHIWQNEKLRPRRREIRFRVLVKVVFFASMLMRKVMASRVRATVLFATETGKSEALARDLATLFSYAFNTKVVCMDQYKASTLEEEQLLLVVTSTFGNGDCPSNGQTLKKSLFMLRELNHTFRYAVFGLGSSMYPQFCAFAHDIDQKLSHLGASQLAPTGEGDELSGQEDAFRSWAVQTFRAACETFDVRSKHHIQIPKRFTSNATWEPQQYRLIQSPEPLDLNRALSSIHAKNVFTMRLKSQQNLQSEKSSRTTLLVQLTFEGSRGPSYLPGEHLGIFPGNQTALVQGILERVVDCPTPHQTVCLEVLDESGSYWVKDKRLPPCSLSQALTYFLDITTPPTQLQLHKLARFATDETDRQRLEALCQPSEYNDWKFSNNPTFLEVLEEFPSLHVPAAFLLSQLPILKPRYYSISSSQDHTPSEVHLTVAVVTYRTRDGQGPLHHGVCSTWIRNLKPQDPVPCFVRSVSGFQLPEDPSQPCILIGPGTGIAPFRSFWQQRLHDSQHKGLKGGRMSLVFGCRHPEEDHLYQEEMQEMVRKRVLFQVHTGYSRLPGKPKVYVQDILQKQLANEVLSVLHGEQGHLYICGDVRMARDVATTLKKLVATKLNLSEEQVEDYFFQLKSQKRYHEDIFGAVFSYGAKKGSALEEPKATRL

[6] = DRUGMATRIX: Phorbol Ester radioligand binding (ligand: [3H] PDBu); assay type: cell membranes, Mus musculus, ICR, Brain, Membrane; conditions: Not Active = under 50% inhibition at 10 µM

COc1c2occc2cc2ccc(=O)oc12 [METHOXSALEN]
Not Active: IC50 [1] | IC50 [2] | Ki [2] | IC50 [3] | IC50 [4] | IC50 [5] | IC50 [6] | Ki [6]

C[C@H]1C[C@@H]2[C@H]([C@@H](O)C[C@@]3(C)[C@H]2CC[C@]3(O)C(=O)CO)[C@@]2(C)C=CC(=O)C=C12 [METHYLPREDNISOLONE]
Not Active: IC50 [1] | IC50 [2] | Ki [2] | IC50 [3] | IC50 [4] | IC50 [5] | IC50 [6] | Ki [6]

Cc1cccc(C)c1OCC(C)N (stereo not given) [MEXILETINE]
Not Active: IC50 [1] | IC50 [2] | Ki [2] | IC50 [3] | IC50 [4] | IC50 [5] | IC50 [6] | Ki [6]

Nc1cc(N2CCCCC2)nc(N)[n+]1[O-] [MINOXIDIL]
Not Active: IC50 [1] | IC50 [2] | Ki [2] | IC50 [3] | IC50 [4] | IC50 [5] | IC50 [6] | Ki [6]

CO[C@H]1/C=C/O[C@@]2(C)Oc3c(C)c(O)c4c(O)c(c(/C=N/N5CCN(C6CCCC6)CC5)c(O)c4c3C2=O)NC(=O)/C(C)=C\C=C\[C@H](C)[C@H](O)[C@@H](C)[C@@H](O)[C@@H](C)[C@H](OC(C)=O)[C@@H]1C [RIFAPENTINE]
Not Active: IC50 [1] | IC50 [2] | Ki [2] | IC50 [3] | IC50 [4] | IC50 [5] | IC50 [6] | Ki [6]

CCCCOc1cc(CC2CNC(=O)N2)ccc1OC (stereo not given) [RO-201724]
Not Active: IC50 [1] | IC50 [2] | Ki [2] | IC50 [3] | IC50 [4] | IC50 [5] | IC50 [6] | Ki [6]

CC[C@@H](C(=O)[C@@H](C)[C@@H](O)[C@H](C)[C@@H]1O[C@@H]([C@@H](CC)C(=O)O)CC[C@@H]1C)[C@H]1O[C@]2(C=C[C@@H](O)[C@]3(CC[C@@](C)([C@H]4CC[C@](O)(CC)[C@H](C)O4)O3)O2)[C@H](C)C[C@@H]1C [SALINOMYCIN]
Not Active: IC50 [1] | IC50 [2] | Ki [2] | IC50 [3] | IC50 [4] | IC50 [5] | IC50 [6] | Ki [6]

O=C(Oc1ccccc1C(=O)O)c1ccccc1O [SALSALATE]
Not Active: IC50 [1] | IC50 [2] | Ki [2] | IC50 [3] | IC50 [4] | IC50 [5] | IC50 [6] | Ki [6]

O=C(O)c1cn(-c2ccc(F)cc2)c2cc(N3CCNCC3)c(F)cc2c1=O [SARAFLOXACIN]
Not Active: IC50 [1] | IC50 [2] | Ki [2] | IC50 [3] | IC50 [4] | IC50 [5] | IC50 [6] | Ki [6]

CC(C)NCC(O)c1ccc(NS(C)(=O)=O)cc1 (stereo not given) [SOTALOL]
Not Active: IC50 [1] | IC50 [2] | Ki [2] | IC50 [3] | IC50 [4] | IC50 [5] | IC50 [6] | Ki [6]

O.O.O.O.O.O.[Cl-].[Cl-].[Sr+2] [STRONTIUM CHLORIDE HEXAHYDRATE]
Not Active: IC50 [1] | IC50 [2] | Ki [2] | IC50 [3] | IC50 [4] | IC50 [5] | IC50 [6] | Ki [6]

O=C1C(CC[S+]([O-])c2ccccc2)C(=O)N(c2ccccc2)N1c1ccccc1 (stereo not given) [SULFINPYRAZONE]
Not Active: IC50 [1] | IC50 [2] | Ki [2] | IC50 [3] | IC50 [4] | IC50 [5] | IC50 [6] | Ki [6]

NC(=O)N1C(=O)/C(=C(\O)c2cccs2)c2cc(Cl)ccc21 [TENIDAP]
Not Active: IC50 [1] | IC50 [2] | Ki [2] | IC50 [3] | IC50 [4] | IC50 [5] | IC50 [6] | Ki [6]

COc1cc2nc(N3CCN(C(=O)C4CCCO4)CC3)nc(N)c2cc1OC (stereo not given) [TERAZOSIN]
Not Active: IC50 [1] | IC50 [2] | Ki [2] | IC50 [3] | IC50 [4] | IC50 [5] | IC50 [6] | Ki [6]

CN(C/C=C/C#CC(C)(C)C)Cc1cccc2ccccc12 [TERBINAFINE]
Not Active: IC50 [1] | IC50 [2] | Ki [2] | IC50 [3] | IC50 [4] | IC50 [5] | IC50 [6] | Ki [6]
